# Legend:
# RSV A2 [1] = assay: Inhibition of virus infectivity in vivo, lung virus titers in BALB/c mice; details: for inhibition of RSV infection in vivo (in words): BALB/c mouse model; for reduced infectivity, fold: co-administration with RSV (Table 16)
# Description: Inhibition of virus infectivity in vivo. […] All administrations were intranasal (0.05 ml) and performed under injected anesthesia (60 mg ketamine/kg and 2.5 mg xylazine/kg (The Butler Co.; Dublin Ohio)). Four days later the lungs were removed, homogenized, clarified by low speed centrifugation, snap frozen, and stored at −70° C. until plaque assays were performed using HEp-2 cell monolayers (Hancock et al. 1996). All animals were housed in a facility accredited by the American Association for Accreditation of Laboratory Animal Care.
# (§1) Plaque assay. Virus plaques were visualized as previously described (Hancock et al. 1996) using anti-F protein (L4) mAb (Paradiso et al., 1991; Walsh and Hruska, 1983). Thereafter, cells were rinsed with blotto blocking agent (PBS, 5% powdered milk) and incubated with horseradish peroxidase-conjugated goat anti-mouse IgG (Kirkegaard and Perry Laboratories, Inc.; Gaithersburg, Md.). Bound antibody was detected using 0.05% 4-chloro-1-naphtol containing 0.1% H2O2 in PBS. After enumeration of plaques, the mean percent infectivity (±1 standard deviation of triplicate wells) was calculated relative to monolayers exposed to virus in culture medium alone without chemokine or anti-chemokine receptor antibody.
# RSV A2 [2] = assay: Inhibition of RSV infectivity in vitro, plaque assay on HEp-2 cell monolayers; format: cell-based, respiratory syncytial virus (RSV); details: for effect on RSV infectivity (in words): prior exposure (1 hour) of HEp-2 cells to recombinant chemokine, up to 10 μg/ml
# Description: Inhibition of virus infectivity in vitro. HEp-2 cell monolayers were grown in 96-well tissue culture plates (Falcon, Becton Dickson and Co.; Franklin Lakes, N.J.) with complete medium. The monolayers were pre-treated for 1 hour at 4° C. or 37° C. in triplicate wells with the indicated amounts of recombinant chemokine or anti-chemokine receptor antibody. After removal of chemokine or antibody, the monolayers were infected 1 hour at the same temperature with the denoted wild type or mutant RSV strain and then overlaid with 2% Sephadex (Amersham Biosciences; Piscataway, N.J.). Anti-viral activity was also assessed 1 hour after the cells were infected, or following simultaneous exposure of the monolayers to virus in a 1:1 mixture with the indicated doses of chemokines or CCL5 peptides. The inhibitory properties of the anti-chemokine receptor antibodies were tested alone or in combination at doses ranging from 5 to 100 μg/ml culture medium.
# as §1
# HEp-2 cells = assay: Binding of biotinylated CCL5 peptides to HEp-2 cell monolayers (ELISA); parameters: species or system human; details: FIG. 3, viable HEp-2 cells at 4° C.
# Description: Interaction of CCL5 peptides with HEp-2 cells. An ELISA was used to assess the relative binding of synthetic peptides to HEp-2 cell monolayers. In brief, 96-well plates (Falcon) were seeded with 3×10^4 HEp-2 cells per well in 0.2 ml of complete medium. After overnight incubation (37° C., 5% CO2), the monolayers were cooled on ice for approximately 15 minutes. The biotinylated peptides were added to duplicate wells in ascending doses from 0.49 μg to 500 μg per ml DMEM (supplemented with 1% FBS, 2% penicillin/streptomycin, and 2 mM L-glutamine) and incubated at 4° C. for 1 hour. The monolayers were then fixed (20 minutes at RT) with 80% methanol (J T Baker; Phillipsburg, N.J.). […] Thereafter, the monolayers were incubated (1 hour at RT) with streptavidin-HRP (Zymed; San Francisco, Calif.). The wells were developed with TMB One-Step Substrate Solution (DAKO; Carpinteria, Calif.). Optical density was determined (450 nm, reference at 550 nm) with a Molecular Devices Versamax microplate reader (Sunnyvale, Calif.).
# [3] = all experiments at the 500 μg/dose
# [4] = Table 16 Exp. 1, 500 μg/dose, simultaneously admixed with RSV A2, intranasal, lungs four days later
# [5] = Table 10, 1 μg/ml, exposed 1 hour before infection, plaques after 3 days
# [6] = Table 10, 5 μg/ml, exposed 1 hour before infection, plaques after 3 days
# [7] = Table 10, 10 μg/ml, exposed 1 hour before infection, plaques after 3 days, relative to control wells (100%)
# [8] = Table 16 Exp. 1, 250 μg/dose, simultaneously admixed with RSV A2, four days
# [9] = Table 17, 500 μg, Simultaneous with RSV A2, four days
# [10] = Table 11, 1 μg/ml, exposed 1 hour before infection, plaques after 3 days
# [11] = Table 11, 5 μg/ml, exposed 1 hour before infection, plaques after 3 days
# [12] = Table 11, 10 μg/ml, exposed 1 hour before infection, plaques after 3 days
# [13] = Table 12, 10 μg/ml, 1 hour after removal of RSV A2 (POST)
# [14] = Table 12, 10 μg/ml, 1 hour prior to infection (PRE)
molecule,measurement,setting,value
"NC(=O)CN(CC(N)=O)S(=O)(=O)c1cccc(Nc2nc(Nc3cccc(S(=O)(=O)N(CC(N)=O)CC(N)=O)c3)nc(Nc3ccc(-c4ccc(Nc5nc(Nc6cccc(S(=O)(=O)N(CC(N)=O)CC(N)=O)c6)nc(Nc6cccc(S(=O)(=O)N(CC(N)=O)CC(N)=O)c6)n5)cc4S(=O)(=O)O)c(S(=O)(=O)O)c3)n2)c1 [RFI-641, reference compound]",inhibition of RSV infection in vivo (in words),RSV A2 [1],inhibitory against RSV infection
same,RSV/Gram Lung Tissue (log10),"RSV A2 [1]; Table 16 Exp. 1, 25 μg/dose, simultaneously admixed with RSV A2, four days",2.7 ± 0.2 log10
same,RSV/Gram Lung Tissue (log10),"RSV A2 [1]; Table 16 Exp. 2, 25 μg/dose, simultaneously admixed with RSV A2, four days",2.7 ± 0.3 log10
"AHIKEYFYTSGKCSN (listed as Homo sapiens) [Peptide 4, CCL5 amino acids 22-36]",average reduction in virus load,RSV A2 [1]; [3],1.2 log10
"CANPEKKWVREYINS (listed as Homo sapiens) [Peptide 8, CCL5 amino acids 50-64]",RSV/Gram Lung Tissue (log10),RSV A2 [1]; [4],3.6 ± 0.03 log10
same,average reduction in virus load,RSV A2 [1]; [3],1.0 log10
same,"reduced infectivity, fold",RSV A2 [1],approximately 10 fold
CCL11: recombinant human chemokine CCL11 (eotaxin),Percent Infectivity,RSV A2 [2]; [5],94.4 ± 4.8%
same,Percent Infectivity,RSV A2 [2]; [6],93.1 ± 12.7%
same,Percent Infectivity,RSV A2 [2]; [7],94.4 ± 4.8%
same,effect on RSV infectivity (in words),RSV A2 [2],did not impair RSV infectivity
"EKKWVREYINSLEMS (listed as Homo sapiens) [Peptide 9, CCL5 amino acids 54-68]",RSV/Gram Lung Tissue (log10),RSV A2 [1]; [8],3.7 ± 0.1 log10
same,average reduction in virus load,RSV A2 [1]; [3],1.4 log10
same,"reduced infectivity, fold",RSV A2 [1],approximately 10 fold
"PAVVFVTRKNRQVC (listed as Homo sapiens) [Peptide 6, CCL5 amino acids 37-50]",average reduction in virus load,RSV A2 [1]; [3],0.5 log10
"SPYSSDTTPCCFAYI (listed as Homo sapiens) [Peptide 1, CCL5 amino acids 1-15]",average reduction in virus load,"RSV A2 [1]; 300 μg or more, five experiments",2.4 log10
same,inhibition of RSV infection in vivo (in words),RSV A2 [1],most inhibitory in vivo
same,RSV/Gram Lung Tissue (log10),"RSV A2 [1]; Table 16 Exp. 1, 125 μg/dose, simultaneously admixed with RSV A2, four days",4.6 ± 0.2 log10
same,RSV/Gram Lung Tissue (log10),RSV A2 [1]; [8],4.3 ± 0.2 log10
same,RSV/Gram Lung Tissue (log10),RSV A2 [1]; [4],1.8 ± 0.1 log10
same,RSV/Gram Lung Tissue (log10),"RSV A2 [1]; Table 16 Exp. 2, 300 μg/dose, simultaneously admixed with RSV A2, four days",4.0 ± 0.1 log10
same,RSV/Gram Lung Tissue (log10),"RSV A2 [1]; Table 16 Exp. 2, 400 μg/dose, simultaneously admixed with RSV A2, four days",3.8 ± 0.1 log10
same,RSV/Gram Lung Tissue (log10),"RSV A2 [1]; Table 16 Exp. 2, 500 μg/dose, simultaneously admixed with RSV A2, four days",3.1 ± 0.1 log10
same,RSV/Gram Lung Tissue (log10),"RSV A2 [1]; Table 17, 500 μg, 1 hour after infection (Post), four days",5.3 ± 0.2 log10
same,RSV/Gram Lung Tissue (log10),"RSV A2 [1]; Table 17, 500 μg, 1 hour before infection (Pre), four days",3.5 ± 0.6 log10
same,RSV/Gram Lung Tissue (log10),RSV A2 [1]; [9],1.9 ± 0.2 log10
same,"virus load diminished, fold",RSV A2 [1]; administered 1 hour before infection,more than 50 fold
same,binding to the epithelial cell monolayer (in words),HEp-2 cells,readily bound to the epithelial cell monolayer
"TPCCFAYIARPLPRA (listed as Homo sapiens) [Peptide 2, CCL5 amino acids 8-22]",average reduction in virus load,RSV A2 [1]; [3],0.9 log10
"TRKNRQVCANPEKKW (listed as Homo sapiens) [Peptide 7, CCL5 amino acids 43-57]",RSV/Gram Lung Tissue (log10),RSV A2 [1]; [4],4.6 ± 0.1 log10
same,RSV/Gram Lung Tissue (log10),RSV A2 [1]; [9],3.8 ± 0.1 log10
same,average reduction in virus load,RSV A2 [1]; [3],1.1 log10
"CCL3: recombinant human chemokine CCL3 (MIP-1α) (protein, UniProt P10147 24-92, looked up) C-C motif chemokine 3: SLAADTPTACCFSYTSRQIPQNFIADYFETSSQCSKPGVIFLTKRSRQVCADPSEEWVQKYVSDLELSA",Percent Infectivity,RSV A2 [2]; [5],95.8 ± 11.0%
same,Percent Infectivity,RSV A2 [2]; [6],97.2 ± 8.7%
same,Percent Infectivity,RSV A2 [2]; [7],86.1 ± 2.4%
same,Percent Infectivity,RSV A2 [2]; [10],103.0 ± 3.0%
same,Percent Infectivity,RSV A2 [2]; [11],98.0 ± 1.0%
same,Percent Infectivity,RSV A2 [2]; [12],91.0 ± 5.0%
same,Percent Infectivity,RSV A2 [2]; [13],104 ± 7%
same,Percent Infectivity,RSV A2 [2]; [14],91 ± 10%
same,effect on RSV infectivity (in words),RSV A2 [2],did not impair infectivity
"CCL8: recombinant human chemokine CCL8 (MCP-2) (protein, UniProt P80075 24-99, looked up) C-C motif chemokine 8: QPDSVSIPITCCFNVINRKIPIQRLESYTRITNIQCPKEAVIFKTKRGKEVCADPKERWVRDSMKHLDQIFQNLKP",Percent Infectivity,RSV A2 [2]; [5],88.9 ± 6.4%
same,Percent Infectivity,RSV A2 [2]; [6],100.0 ± 0.0%
same,Percent Infectivity,RSV A2 [2]; [7],94.4 ± 10.5%
same,effect on RSV infectivity (in words),RSV A2 [2],did not impair RSV infectivity
"CCL15: recombinant human chemokine CCL15 (MIP-1δ) (protein, UniProt Q16663 22-113, looked up) C-C motif chemokine 15: QFTNDAETELMMSKLPLENPVVLNSFHFAADCCTSYISQSIPCSLMKSYFETSSECSKPGVIFLTKKGRQVCAKPSGPGVQDCMKKLKPYSI",Percent Infectivity,RSV A2 [2]; [13],93 ± 4%
same,Percent Infectivity,RSV A2 [2]; [14],97 ± 8%
same,effect on RSV infectivity (in words),RSV A2 [2],did not impair RSV infectivity
"CCL4: recombinant human chemokine CCL4 (MIP-1β) (protein, UniProt P13236 24-92, looked up) C-C motif chemokine 4: APMGSDPPTACCFSYTARKLPRNFVVDYYETSSLCSQPAVVFQTKRSKQVCADPSESWVQEYVYDLELN",Percent Infectivity,RSV A2 [2]; [10],104.0 ± 4.0%
same,Percent Infectivity,RSV A2 [2]; [11],99.0 ± 9.0%
same,Percent Infectivity,RSV A2 [2]; [12],98.0 ± 5.0%
same,effect on RSV infectivity (in words),RSV A2 [2],did not impair infectivity

# From patent US20070161550A1, “Antiviral compositions which inhibit paramyxovirus infection” (priority 2003, published 2007)
